According to US4962109A, “Insecticidally and acaricidally active pyrimidine esters and intermediates therefor” (Imperial Chemical Industries PLC, priority 1985, dated 1990):

What was measured:
Type in all cases: in vivo
[1] = system: Tetranychus urticae (spider mites - adult); experiment: Contact test on spider mites - adult (TUa), French bean leaf, mortality; conditions: 72 h, 500 ppm, contact, 3 days, read-out: TUa grading of mortality
How it was run: (§1)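 Graded read-out: A 80-100%, B 50-79%, C below 50% mortality or knockdown, assessed usually 1-3 days post-treatment. Liquid preparations at 500, 250 or 100 ppm by weight, from acetone solution diluted in water with 0.01% wetting agent, applied to pests and/or their host plant or food medium.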

[2] = system: Musca domestica (houseflies - adults); experiment: Contact test on houseflies - adults (MD), Cotton wool/sugar, mortality; conditions: 24 h, 500 ppm, contact, ** test duration of 1 day, read-out: MD grading of mortality
How it was run: as §1

[3] = system: Diabrotica balteata (rootworm larvae); experiment: Residual test on rootworm larvae (DB), Filter paper/maize seed, mortality; conditions: 48 h, 500 ppm, residual, * test duration of 3 days, read-out: DB grading of mortality
How it was run: as §1

[4] = system: Tetranychus urticae (spider mites - ova); experiment: Contact test on spider mites - ova (TUe), French bean leaf, mortality; conditions: 144 h, 500 ppm, contact, 6 days, read-out: TUe grading of mortality
How it was run: as §1

[5] = system: Spodoptera exigua (lesser army worm - larvae); experiment: Residual test on lesser army worm larvae (SP), Cotton leaf, mortality; conditions: 48 h, 500 ppm, residual, * test duration of 3 days, read-out: SP grading of mortality
How it was run: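 Product dissolved in acetone and diluted in water with 0.01% wetting agent to 500, 250 or 100 ppm; larvae and/or cotton leaf host treated. Mortality or knockdown scored one to three days later and graded A (80-100%), B (50-79%) or C (<50%).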

[6] = system: Blattella germanica (cockroach nymphs); experiment: Residual test on cockroach nymphs (BG/R), Plastic pot, mortality; conditions: 72 h, 3 days, read-out: BG/R grading of mortality
Experimental: (§2) The activity of the Product was determined using a variety of insect pests. The Product was used in the form of liquid preparations containing 500, 250 or 100 parts per million (ppm) by weight of the Product. The preparations were made by dissolving the Product in acetone and diluting the solutions with water containing 0.01% by weight of a wetting agent sold under the trade name "LISSAPOL" NX until the liquid preparations contained the required concentration of the Product. "Lissapol" is a Registered Trade Mark.
(§3) The test procedure adopted with regard to each pest was basically the same and comprised supporting a number of the pests on a medium which was usually a host plant or a foodstuff on which the pests feed, and treating either or both the pests and the medium with the preparations. The mortality of the pests was then assessed at periods usually varying from one to three days after the treatment.
(§4) The results of the tests are given in Table III for each of the Products, at the rate in parts per million given in the second column as a grading of mortality designated as A, B or C wherein A indicates 80-100% mortality or knockdown, B indicates 50-79% mortality or knockdown and C indicates less than 50% mortality or knockdown.
BG/R Blattella germanica

[7] = system: Myzus persicae (aphids); experiment: Contact test on aphids (MP), Chinese Cabbage leaf, mortality; conditions: 72 h, 500 ppm, contact, 3 days, read-out: MP grading of mortality
How it was run: as §1

[8] = system: Nilaparvata lugens (brown plant hopper); experiment: Contact test on brown plant hopper (NL), Rice plant, mortality; conditions: 72 h, 3 days, read-out: NL grading of mortality
Experimental: as §2, §3, §4

[9] = system: Musca domestica (houseflies - adults); experiment: Knockdown test on houseflies - adults (MD/KD), Cotton wool/sugar; conditions: 500 ppm, 4 hours, read-out: MD/KD grading of knockdown
How it was run: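 Adult houseflies exposed to the compound at 500, 250 or 100 ppm in acetone/water with 0.01% wetting agent, on a cotton wool/sugar medium. Knockdown and mortality assessed, graded A (80-100%), B (50-79%) or C (<50%).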

[10] = system: Heliothis virescens (tobacco budworm - larvae); experiment: Residual test on tobacco budworm larvae (HV), Cotton leaf, mortality; conditions: 48 h, read-out: HV grading of mortality
How it was run: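 Product in acetone diluted with water containing 0.01% Lissapol NX, at 500, 250 or 100 ppm; pests and/or host medium (here cotton leaf) treated. Mortality scored one to three days later, graded A (80-100%), B (50-79%), C (<50%).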

[11] = system: insect and acarine pests; experiment: Biological screening of enantiomers, insecticidal and acaricidal activity; conditions: (-) versus (+) enantiomer

Row | SMILES | mortality at 500 ppm [1] | mortality at 500 ppm [2] | mortality at 500 ppm [3] | mortality at 500 ppm [4] | mortality at 500 ppm [5] | mortality at 500 ppm [6] | mortality at 500 ppm [7] | mortality at 500 ppm [8] | pest or weed control at 500 ppm [9] | mortality at 500 ppm [10] | insecticidal and acaricidal activity of enantiomers [11]
1 | C=CCc1c(F)c(F)c(COC(=O)C(CC)c2cnc(C(C)(C)C)nc2)c(F)c1F (racemic) [Compound 123, 2,3,5,6-tetrafluoro-4-(prop-2-en-1-yl)benzyl (RS)-2-[2-(1,1-dimethylethyl)pyrimidin-5-yl]butanoate] | 80 to 100% | 80 to 100% | < 50% | 80 to 100% | 80 to 100% | 50 to 79% | 80 to 100% | 80 to 100% | 80 to 100% | 80 to 100% | 
2 | COCc1c(F)c(F)c(COC(=O)C(c2cnc(C(C)(C)C)nc2)C(C)(C)C)c(F)c1F (single isomer, unassigned; enantiomer 4) [(-)-enantiomer, 4-(methoxymethyl)-2,3,5,6-tetrafluorobenzyl 2-[2-(1,1-dimethylethyl)pyrimidin-5-yl]-3,3-dimethylbutanoate] |  |  |  |  |  |  |  |  |  |  | substantially greater insecticidal and acaricidal activity than the (+)-enantiomer
